This note sets out measurements from patent US20120046364A1, “Novel Sulfonic Acid-Containing Thyromimetics, and Methods for Their Use” (METABASIS THERAPEUTICS, INC., priority 2009, published 2012).

The target in experiment [1] is T1, human thyroid hormone receptor TRα (TRα1) (Homo sapiens, UniProt P10827).
T1 construct: made in house; host or cells: Sf9 insect cells (baculovirus), crude lysate
T1 sequence (P10827 1-410 isoform P10827-2): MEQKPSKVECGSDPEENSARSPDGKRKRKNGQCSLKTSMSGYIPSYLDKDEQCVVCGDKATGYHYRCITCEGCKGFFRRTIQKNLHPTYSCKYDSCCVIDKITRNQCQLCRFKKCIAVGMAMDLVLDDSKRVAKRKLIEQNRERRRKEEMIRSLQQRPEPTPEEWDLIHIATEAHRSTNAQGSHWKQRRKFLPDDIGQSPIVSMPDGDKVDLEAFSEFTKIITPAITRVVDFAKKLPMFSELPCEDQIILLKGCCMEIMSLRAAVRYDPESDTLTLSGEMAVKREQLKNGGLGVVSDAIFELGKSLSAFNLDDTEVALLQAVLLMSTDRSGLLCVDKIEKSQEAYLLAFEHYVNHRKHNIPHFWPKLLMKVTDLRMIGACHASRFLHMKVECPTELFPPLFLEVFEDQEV
T1 sequence (P19793 1-462 partner): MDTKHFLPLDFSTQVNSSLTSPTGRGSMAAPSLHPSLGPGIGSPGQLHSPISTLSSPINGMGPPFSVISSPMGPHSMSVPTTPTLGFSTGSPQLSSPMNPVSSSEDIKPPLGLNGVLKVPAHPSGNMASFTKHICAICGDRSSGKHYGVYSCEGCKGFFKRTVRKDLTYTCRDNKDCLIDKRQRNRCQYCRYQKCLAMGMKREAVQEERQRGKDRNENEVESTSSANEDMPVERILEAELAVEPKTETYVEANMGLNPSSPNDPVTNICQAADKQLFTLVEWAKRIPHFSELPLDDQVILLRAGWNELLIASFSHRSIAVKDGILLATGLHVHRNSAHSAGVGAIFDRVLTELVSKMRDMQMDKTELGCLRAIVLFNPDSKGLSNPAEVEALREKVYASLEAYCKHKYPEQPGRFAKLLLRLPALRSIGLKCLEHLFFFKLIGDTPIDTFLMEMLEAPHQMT
As to the kind of experiment: Receptor binding, TRα (125I-T3 displacement / SPA). As for the experimental part:
(§1) Methods: Baculoviruses expressing TRα1, TRβ1 and RXRα are generated using cDNA and other reagents from Invitrogen (Carlsbad, Calif.). To produce TR/RXR heterodimer proteins, the sf9 insect cells are first grown to a density of 15×10^5 cells/mL. TRα1 or TRβ1 and RXRα baculovirus stocks are added to the cell culture with a ratio of 1 to 1 (multiplicity of infection=10). The cells are harvested three days after the infection. […] The bound ^125I-T3 is counted with a scintillation counter.
(§2) Binding of compounds to either the TRα1 or TRβ1 are also performed by means of scintillation proximity assays (SPA). The SPA assay, a common method used for the quantitation of receptor-ligand equilibria, makes use of special beads coated with a scintillant and a capture molecule, copper, which binds to the histidine-tagged α or β receptor.

The target of experiment [2] is T2, human thyroid hormone receptor TRβ (TRβ1) (Homo sapiens, UniProt P10828).
T2 construct: made in house; host or cells: Sf9 insect cells (baculovirus), crude lysate
T2 sequence (P10828 1-461): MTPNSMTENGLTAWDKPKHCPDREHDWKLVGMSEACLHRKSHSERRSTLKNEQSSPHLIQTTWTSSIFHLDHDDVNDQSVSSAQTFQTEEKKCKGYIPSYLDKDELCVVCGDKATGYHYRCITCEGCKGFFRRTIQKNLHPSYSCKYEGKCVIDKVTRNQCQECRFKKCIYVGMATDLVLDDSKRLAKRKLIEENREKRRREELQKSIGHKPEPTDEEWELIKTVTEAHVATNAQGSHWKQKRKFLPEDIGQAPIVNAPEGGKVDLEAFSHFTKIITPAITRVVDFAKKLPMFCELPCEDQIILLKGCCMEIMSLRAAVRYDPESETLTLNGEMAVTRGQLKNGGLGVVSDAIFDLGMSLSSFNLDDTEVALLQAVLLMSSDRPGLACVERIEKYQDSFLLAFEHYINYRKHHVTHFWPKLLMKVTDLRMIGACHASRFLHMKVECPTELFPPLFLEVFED
T2 sequence (P19793 1-462 partner): T1 sequence (P19793 1-462 partner)
As to the kind of experiment: Receptor binding, TRβ (125I-T3 displacement / SPA). The settings on record: for Ratio: TRα Kd / TRβ Kd. How it is done:
as §1, §2

Experiment [3] is described as follows: PO 24 Hr. CF TPC decrease. The class given is in vivo. The settings on record: dose 0.2 mg/kg. An excerpt: Administering sulfonic acid-containing compounds that bind to a TR to animals can result in changes in lipids, including hepatic and/or plasma cholesterol levels; changes in lipoprotein levels including LDL-cholesterol, lipoprotein a (Lp(a)); changes in hepatic glycogen levels; and changes in energy expenditure as measured by changes in oxygen consumption and in some cases animal weight. For example, the effect on cholesterol may be determined using cholesterol fed animals such as normal rats and hamsters, or TRα^−/− knockout mice. Cholesterol may be measured using standard tests. Hepatic glycogen levels may be determined from livers isolated from treated animals. Changes in energy expenditure may be monitored by measuring changes in oxygen consumption (MVO2). Varieties of methods are well described in the literature and include measurement in the whole animal using Oxymax chambers (U.S. Pat. No. 6,441,015). Livers from treated rats can also be evaluated (Fernandez et al., Toxicol. Lett. 69(2):205-10 (1993)) as well as isolated mitochondria from liver (Carreras et al., Am. J. Physiol. Heart Circ. Physiol. 281(6):H2282-8 (2001)). Hepatocytes from treated rats can also be evaluated (Ismail-Beigi F et al., J Gen Physiol. 73(3):369-83 (1979)).

pKd: −log10 of the molar value.

Regarding “3,5-dimethyl-4-(4′-hydroxy-3′-iso-propylbenzyl)phenyl-methanesulfonic acid [Compound 2]”, the values for the pKd in experiment [1] and in experiment [2] were 8.96 and 9.40, respectively. The Ratio in experiment [2] worked out at 2.8. Besides, in experiment [3], the “PO 24 Hr. CF TPC Dec (d % of Cont)” value was −42 d % of Cont.

`Cc1cc(CS(=O)(=O)O)cc(C)c1Cc1ccc(O)c(C(C)C)c1` [Compound 1]: the negative-log Kd (pKd) (usually the negative decadic logarithm of the Kd, by convention in mol/L) in experiment [1] was 7.92. In experiment [2], the pKd is 9.15 and the Ratio turned out to be 17.1. The “PO 24 Hr. CF TPC Dec (d % of Cont)” value in experiment [3] is listed as −45 d % of Cont.
